The subject of series [1] is human umbilical vein endothelial cells. The series is described as follows: Endothelial microtubule formation assay on Matrigel. The class given is cell-based. Conditions: 100 μg/ml; 18 h; scale 0-4. The procedure: The endothelial microtubule formation assay was performed by isolating human umbilical vein endothelial cells from umbilical cords within 6 h of delivery by caesarean section. The embilical vein was cannulated and 0.1% collagenase in phosphate buffered saline was introduced and incubated for 20 minutes. The endothelial cells liberated by the collagenase were obtained by washing the umbilical vein with Medium 199. The cells were washed three times with Medium 199 and then cultured in tissue culture flasks coated with fibronectin. Growth media consisted of Medium 199 with 20% foetal bovine serum, 30 μg/ml endothelial cell growth supplement, 10 IU/ml heparin, 100 IU/ml penicillin, 100 μg/1 ml streptomycin and 2 mM L-glutamine. Human umbilical vein endothelial cells were passaged at confluence after treatment with trypsin-EDTA. All cells were used at passages to 6.
Aliquots of Matrigel were dispensed into 35 mm diameter tissue culture dishes on ice and then incubated at 37° C. for 10 min to allow the gel to set. […] At various time points from 8-24 hours, the plates were examined and scored using a published scheme from 0-4, where 0=all adherent cells remain single, and 4=all adherent cells involved in tubular structures. New vessel formation was quantified blind by three different observers at 18 h. […]
Endothelial microtubule formation by HUVECs on Matrigel (×40 magnification). A visual analogue scale was used to determine the extent of tube formation and scored on a scale from 0 (all cells remain single) to 4 (all cells involved in tubular structures) as previously described (Bauer J, Margolis M, Schreiner C, Edgell C-J, Azizkhan J, Lazarowski E, & Juliano R L. (1992) In vitro model of angiogenesis using a human endothelium derived permanent cell line: contributions of induced gene expression, G-proteins and integrins. J. Cellular Physiology 153: 437-449; Liaw, L & Schwartz S M. (1993) Microtubule disruption stimulates DNA synthesis in bovine endothelial cells and potentiates cellular response to basic fibroblast growth factor. […]

Series [2] has as its system brain cell line transfected with human CD4 and the human chemokine receptor CCR5 (U87-CD4-CCR5). The series is described as follows: Toxicity in cell lines, MTT assay. The class given is cell-based. Conditions: 67 h, ± SEM (n = 16). The procedure:
(§1) The compounds synthesised were evaluated for their toxicity in the following cell lines:—the human T-cell line (Sup-T1), a human T-cell line transformed with HTLV-1 (C8166), the human monocytic cell line (U937), the brain cell line transfected with human CD4 and the human chemokine receptor CCR5 (U87-CD4-CCR5), and the murine melanoma cell line (B16P10).
(§2) Dendrimers, glucosamine, glucosamine 6-sulfate and dendrimer conjugates were incubated with each cell line. […] The conjugates or controls were incubated for 67 h with the cells at concentrations ranging from […]. An MTT assay was then used to determine cell viability and the results were expressed as a percentage of that for cells grown in the absence of any compound.
Background: Formazan colour is commonly taken as a measure of viable cells.

The test system of series [3] is human T-cell line (Sup-T1). The series is described as follows: Toxicity in cell lines, MTT assay. It counts as cell-based. Conditions: 67 h, ± SEM (n = 16). The procedure: as §1, §2
Series [4] concerns human T-cell line transformed with HTLV-1 (C8166). Briefly: Toxicity in cell lines, MTT assay. Conditions: 67 h, ± SEM (n = 16). The class given is cell-based. The procedure:
as §1, §2

Series [5] deals with human monocytic cell line (U937). Briefly: Toxicity in cell lines, MTT assay. It counts as cell-based. Conditions: U-937, 67 h, ± SEM (n = 16). The procedure:
as §1, §2

For series [6], the system named is murine melanoma cell line (B16F10). Briefly: Toxicity in cell lines, MTT assay. Conditions: Mus musculus, B16-F10, 67 h, ± SEM (n = 16). It counts as cell-based. The procedure: as §1, §2
Series [7] has as its system Sup-T1, C8166, U937, U87-CD4-CCR5 and B16F10 cells. The series is described as follows: Toxicity in cell lines, MTT assay, stated over all cell lines. It counts as cell-based, human; murine. Conditions: concentrations up to 1,000 μg/ml. The procedure:
as §1, §2

Series [8] deals with freshly isolated human PBMN cells and human MDM. The series is described as follows: Toxicity against primary human cells in vitro, MTT assay. The class given is cell-based. The note with it: up to the maximum concentration of 1,000 μg/ml. The procedure: The dendrimers and the dendrimer conjugates were incubated with freshly isolated, human peripheral blood mononuclear (PBMN) cells and with freshly isolated human monocyte-derived-macrophages QDM).
Human PBMN cells and human MDMs were separated from buffy coat residues within 24 h of collection by density gradient centrifugation. […] The monocytes were allowed to differentiate to MDMs by a further 3 days of adherence. The compounds were then added to PBMN cells or to MDMs (1×10^6 cells/ml) and incubated for 67 h. Cell viability was assessed using the MTT assay at 72 h.

Here are results for three compounds from patent US8058344B2, “Glycodendrimers having biological activity” (Imperial Innovations Ltd, priority 2002, dated 2011).

What is called IC50 is the point on the concentration scale where inhibition reaches its midpoint.

As for `N[C@H]1C(O)O[C@H](COS(=O)(=O)O)[C@@H](O)[C@@H]1OS(=O)(=O)O` (stereo partly shown) [glucosamine 3,6-disulfate], the “Tube formation score (n = 4)” value in series [1] is recorded as 4.
With `N[C@H]1C(O)O[C@H](COS(=O)(=O)O)[C@@H](O)[C@@H]1O` (stereo partly shown) [glucosamine 6-sulfate], the IC50 in series [2], in series [3], in series [4], in series [5] and in series [6] was greater than 1000 mg/L in each case. In addition, the toxicity result in series [7] is recorded as “no toxicity”. For the same compound, the “toxicity to PBMN cells or to MDMs” value in series [8] is reported as “not toxic”. In addition, in series [1], the “Tube formation score (n = 4)” value was found to be 4.
Consider `N[C@H]1C(O)O[C@H](CO)[C@@H](O)[C@@H]1O` (stereo partly shown) [glucosamine], for which the 50% inhibitory concentration (IC50) in series [2], in series [3], in series [4], in series [5] and in series [6] was greater than 1000 mg/L in each case. Further, the toxicity result in series [7] is “no toxicity”. Further, the “Tube formation score (n = 4)” value in series [1] is on record as 4.
